Assays:
[1] = Solubility of psilocybin and psilocin in solvents; type: physicochemical
Protocol: Psilocybin and psilocin are soluble in methanol and water and are not soluble in isopropanol, ethanol and acetone. Experiments were performed to determine the best solvent compositions for extraction (FIGS. 32B and 32C; Table 7)

[2] = pH stability of purified psilocybin / psilocin over time under aqueous conditions; type: physicochemical; settings: aqueous solutions across the pH spectrum
Description: The dephosphorylated indole alkaloids are well known to be unstable. Internal experiments have also quantified and substantiated these findings under aqueous conditions across the pH spectrum (Tables 5 and 6).

In the case of `CN(C)CCc1c[nH]c2cccc(O)c12` [Psilocin], the solubility in acetone [1] was “not soluble”, the solubility in ethanol [1] was “not soluble” and the solubility in isopropanol [1] was “not soluble”. For the same molecule, the solubility in methanol [1] was “soluble”, the solubility in water [1] was “soluble” and the “maximum stability pH” value [2] was 4 pH.
With `CN(C)CCc1c[nH]c2cccc(OP(=O)(O)O)c12` [Psilocybin] the solubility in acetone [1] was “not soluble”, the solubility in ethanol [1] was “not soluble” and the solubility in isopropanol [1] was “not soluble”. The solubility in methanol [1] was “soluble” and the solubility in water [1] was “soluble”.
